Columns and labels:
[1] = Antiproliferative activity against human HCT116 cells assessed as inhibition of absorbance after 72 hrs by MTT assay; format: functional, cell-based; details: HCT-116, 72 h
[2] = tested on: A549; experiment: Antiproliferative activity against human A549 cells assessed as inhibition of absorbance after 72 hrs by MTT assay; format: functional, cell-based; details: A549, 72 h
[3] = Antiproliferative activity against human HuH7 cells assessed as inhibition of absorbance after 72 hrs by MTT assay; format: functional, cell-based; details: Huh-7, 72 h
[4] = Antiproliferative activity against human HL60 cells assessed as inhibition of absorbance after 72 hrs by MTT assay; format: functional, cell-based; details: HL-60, 72 h
[5] = molecular target: Phosphatidylinositol 4,5-bisphosphate 3-kinase catalytic subunit alpha isoform (Homo sapiens, UniProt P42336); experiment: Inhibition of recombinant PI3Kalpha (unknown origin) using […] as substrate after 3 hrs incubation by competitive fluorescence polarization kinase activity assay
Sequence of Phosphatidylinositol 4,5-bisphosphate 3-kinase catalytic subunit alpha isoform (P42336 whole entry, canonical isoform): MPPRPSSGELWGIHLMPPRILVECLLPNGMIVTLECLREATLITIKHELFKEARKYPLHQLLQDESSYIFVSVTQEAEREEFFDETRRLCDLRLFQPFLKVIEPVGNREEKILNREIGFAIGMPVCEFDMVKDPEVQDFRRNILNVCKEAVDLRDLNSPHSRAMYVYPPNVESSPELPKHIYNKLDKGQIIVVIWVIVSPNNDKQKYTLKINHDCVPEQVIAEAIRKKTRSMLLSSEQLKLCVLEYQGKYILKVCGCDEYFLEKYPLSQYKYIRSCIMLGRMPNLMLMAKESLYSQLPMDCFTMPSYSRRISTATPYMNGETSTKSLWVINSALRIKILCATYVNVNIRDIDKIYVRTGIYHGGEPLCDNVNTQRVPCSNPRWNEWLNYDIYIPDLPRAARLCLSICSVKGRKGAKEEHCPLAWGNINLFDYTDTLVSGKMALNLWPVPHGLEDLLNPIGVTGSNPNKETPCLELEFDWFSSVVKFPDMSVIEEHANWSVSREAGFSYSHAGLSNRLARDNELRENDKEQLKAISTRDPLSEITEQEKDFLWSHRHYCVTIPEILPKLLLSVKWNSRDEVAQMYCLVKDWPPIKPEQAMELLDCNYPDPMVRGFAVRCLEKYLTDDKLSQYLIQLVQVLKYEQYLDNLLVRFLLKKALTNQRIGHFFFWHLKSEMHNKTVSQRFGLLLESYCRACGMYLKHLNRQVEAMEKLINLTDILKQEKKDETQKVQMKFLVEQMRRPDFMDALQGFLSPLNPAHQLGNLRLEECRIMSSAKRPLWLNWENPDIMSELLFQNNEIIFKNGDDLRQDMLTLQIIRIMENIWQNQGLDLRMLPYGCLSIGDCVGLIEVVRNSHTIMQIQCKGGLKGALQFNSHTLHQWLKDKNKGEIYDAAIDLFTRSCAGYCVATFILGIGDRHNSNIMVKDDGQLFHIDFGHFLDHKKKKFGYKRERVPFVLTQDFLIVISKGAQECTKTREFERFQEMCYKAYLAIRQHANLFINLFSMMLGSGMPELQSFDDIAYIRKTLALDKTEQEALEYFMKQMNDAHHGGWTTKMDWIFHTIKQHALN

[6] = molecular target: Phosphatidylinositol 4,5-bisphosphate 3-kinase catalytic subunit beta isoform (Homo sapiens, UniProt P42338); experiment: Inhibition of recombinant PI3Kbeta (unknown origin) […] after 3 hrs incubation by competitive fluorescence polarization kinase activity assay
Sequence of Phosphatidylinositol 4,5-bisphosphate 3-kinase catalytic subunit beta isoform (P42338 whole entry, canonical isoform): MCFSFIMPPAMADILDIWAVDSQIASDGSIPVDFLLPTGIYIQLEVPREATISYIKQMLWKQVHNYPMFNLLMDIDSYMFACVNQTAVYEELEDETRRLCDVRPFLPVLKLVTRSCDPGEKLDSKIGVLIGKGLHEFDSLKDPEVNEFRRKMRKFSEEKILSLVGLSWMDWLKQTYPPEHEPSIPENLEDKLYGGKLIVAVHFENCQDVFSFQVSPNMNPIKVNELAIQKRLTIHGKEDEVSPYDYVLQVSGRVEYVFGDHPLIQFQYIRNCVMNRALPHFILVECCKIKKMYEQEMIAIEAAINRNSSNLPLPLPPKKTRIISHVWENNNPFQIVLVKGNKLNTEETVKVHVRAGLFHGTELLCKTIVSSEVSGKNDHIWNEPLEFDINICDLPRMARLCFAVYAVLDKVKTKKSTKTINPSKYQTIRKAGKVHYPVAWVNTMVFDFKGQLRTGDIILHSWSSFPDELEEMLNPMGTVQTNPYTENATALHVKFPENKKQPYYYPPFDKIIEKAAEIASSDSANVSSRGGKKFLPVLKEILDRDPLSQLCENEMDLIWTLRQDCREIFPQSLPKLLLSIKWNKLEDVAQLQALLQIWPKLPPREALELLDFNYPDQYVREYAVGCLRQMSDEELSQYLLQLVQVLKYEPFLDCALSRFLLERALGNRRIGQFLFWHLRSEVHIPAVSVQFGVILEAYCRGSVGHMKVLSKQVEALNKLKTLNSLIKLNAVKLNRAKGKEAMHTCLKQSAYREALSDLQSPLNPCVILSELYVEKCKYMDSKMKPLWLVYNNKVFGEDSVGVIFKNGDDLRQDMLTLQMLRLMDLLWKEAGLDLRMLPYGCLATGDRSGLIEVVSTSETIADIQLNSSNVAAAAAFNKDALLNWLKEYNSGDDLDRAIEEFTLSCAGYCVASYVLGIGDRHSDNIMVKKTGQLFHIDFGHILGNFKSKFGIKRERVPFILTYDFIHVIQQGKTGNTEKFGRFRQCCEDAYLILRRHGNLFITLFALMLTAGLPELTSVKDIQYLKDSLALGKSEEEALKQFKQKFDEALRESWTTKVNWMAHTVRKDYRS

[7] = molecular target: Phosphatidylinositol 4,5-bisphosphate 3-kinase catalytic subunit gamma isoform (Homo sapiens, UniProt P48736); experiment: Inhibition of recombinant PI3Kgamma (unknown origin) using […] as substrate after 3 hrs incubation by competitive fluorescence polarization kinase activity assay
Sequence of Phosphatidylinositol 4,5-bisphosphate 3-kinase catalytic subunit gamma isoform (P48736 whole entry, canonical isoform): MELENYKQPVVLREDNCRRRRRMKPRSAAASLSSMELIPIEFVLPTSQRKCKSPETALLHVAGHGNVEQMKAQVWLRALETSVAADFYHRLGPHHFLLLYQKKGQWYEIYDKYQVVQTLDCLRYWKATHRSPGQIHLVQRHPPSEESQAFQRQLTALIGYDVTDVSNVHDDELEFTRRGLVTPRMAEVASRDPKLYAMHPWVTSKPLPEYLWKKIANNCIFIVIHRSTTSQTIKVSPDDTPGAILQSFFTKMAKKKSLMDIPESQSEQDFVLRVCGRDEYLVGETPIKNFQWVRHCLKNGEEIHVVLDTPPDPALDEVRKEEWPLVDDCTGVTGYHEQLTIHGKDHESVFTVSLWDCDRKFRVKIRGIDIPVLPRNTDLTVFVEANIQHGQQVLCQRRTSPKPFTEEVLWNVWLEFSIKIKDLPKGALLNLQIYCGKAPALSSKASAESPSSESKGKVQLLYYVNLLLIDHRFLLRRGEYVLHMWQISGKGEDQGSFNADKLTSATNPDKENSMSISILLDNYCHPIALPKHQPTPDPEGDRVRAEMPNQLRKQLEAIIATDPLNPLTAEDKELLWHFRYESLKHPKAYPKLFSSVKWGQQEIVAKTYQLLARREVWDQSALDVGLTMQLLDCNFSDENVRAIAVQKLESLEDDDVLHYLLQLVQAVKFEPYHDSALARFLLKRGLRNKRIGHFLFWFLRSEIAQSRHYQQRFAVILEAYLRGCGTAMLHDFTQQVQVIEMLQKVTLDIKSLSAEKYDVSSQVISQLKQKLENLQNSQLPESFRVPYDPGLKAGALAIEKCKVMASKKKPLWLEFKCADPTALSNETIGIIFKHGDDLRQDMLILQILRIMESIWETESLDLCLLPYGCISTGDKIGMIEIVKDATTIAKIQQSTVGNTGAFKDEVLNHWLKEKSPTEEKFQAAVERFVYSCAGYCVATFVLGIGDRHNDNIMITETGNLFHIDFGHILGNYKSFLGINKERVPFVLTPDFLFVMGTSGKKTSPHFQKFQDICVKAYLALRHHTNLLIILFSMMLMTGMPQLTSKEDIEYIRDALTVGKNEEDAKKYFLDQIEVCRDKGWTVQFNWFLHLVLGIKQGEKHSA

[8] = molecular target: T1, Phosphatidylinositol 4,5-bisphosphate 3-kinase catalytic subunit delta isoform (Homo sapiens, UniProt O00329); experiment: Inhibition of recombinant PI3Kdelta (unknown origin) using […] as substrate after 3 hrs incubation by competitive fluorescence polarization kinase activity assay
T1 sequence (O00329 whole entry): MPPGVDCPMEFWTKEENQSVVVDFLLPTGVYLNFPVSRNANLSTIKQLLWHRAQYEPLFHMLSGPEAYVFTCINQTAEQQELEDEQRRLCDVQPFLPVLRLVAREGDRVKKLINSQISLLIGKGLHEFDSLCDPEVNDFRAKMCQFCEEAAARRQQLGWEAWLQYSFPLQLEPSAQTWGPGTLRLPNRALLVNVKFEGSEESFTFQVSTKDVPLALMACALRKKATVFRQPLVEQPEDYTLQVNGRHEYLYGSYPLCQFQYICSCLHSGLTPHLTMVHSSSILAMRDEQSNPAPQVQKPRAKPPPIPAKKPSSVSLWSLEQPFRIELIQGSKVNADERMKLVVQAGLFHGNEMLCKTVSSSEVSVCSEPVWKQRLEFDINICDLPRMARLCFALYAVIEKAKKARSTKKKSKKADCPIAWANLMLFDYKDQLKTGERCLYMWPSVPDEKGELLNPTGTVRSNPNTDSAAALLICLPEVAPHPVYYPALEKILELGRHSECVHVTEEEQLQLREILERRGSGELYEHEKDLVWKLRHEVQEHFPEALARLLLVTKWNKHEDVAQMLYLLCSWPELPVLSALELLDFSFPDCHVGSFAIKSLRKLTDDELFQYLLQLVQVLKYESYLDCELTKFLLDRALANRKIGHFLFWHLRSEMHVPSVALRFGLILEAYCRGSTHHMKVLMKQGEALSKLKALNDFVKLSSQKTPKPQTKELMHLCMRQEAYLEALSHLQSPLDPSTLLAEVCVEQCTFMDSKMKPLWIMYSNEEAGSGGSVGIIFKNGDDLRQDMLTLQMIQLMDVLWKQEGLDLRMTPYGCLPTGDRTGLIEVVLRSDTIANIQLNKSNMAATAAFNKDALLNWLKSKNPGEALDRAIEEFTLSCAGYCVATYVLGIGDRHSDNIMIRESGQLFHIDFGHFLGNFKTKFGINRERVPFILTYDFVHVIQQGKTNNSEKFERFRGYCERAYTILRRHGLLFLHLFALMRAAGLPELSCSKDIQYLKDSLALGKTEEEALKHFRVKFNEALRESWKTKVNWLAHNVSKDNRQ

[9] = tested on: HCT-116; experiment: Induction of apoptosis in human HCT116 cells assessed as necrotic cells at 0.5 uM after 24 hrs using annexin V/propidium iodide staining based flow cytometry (reference value: 4.09%); format: functional
[10] = tested on: HCT-116; experiment: Induction of apoptosis in human HCT116 cells assessed as late apoptotic cells at 0.5 uM after 24 hrs using annexin V/propidium iodide staining based flow cytometry (reference value: 0.710%); format: functional
[11] = tested on: HCT-116; experiment: Induction of apoptosis in human HCT116 cells assessed as early apoptotic cells at 0.5 uM after 24 hrs using annexin V/propidium iodide staining based flow cytometry (reference value: 1.93%); format: functional
[12] = tested on: HCT-116; experiment: Induction of apoptosis in human HCT116 cells assessed as viable cells at 0.5 uM after 24 hrs using annexin V/propidium iodide staining based flow cytometry (reference value: 93.3%); format: functional; details: HCT-116, 24 h, read-out: Activity
[13] = tested on: HCT-116; experiment: Induction of apoptosis in human HCT116 cells assessed as necrotic cells at 1 uM after 24 hrs using annexin V/propidium iodide staining based flow cytometry (reference value: 4.09%); format: functional
[14] = tested on: HCT-116; experiment: Induction of apoptosis in human HCT116 cells assessed as late apoptotic cells at 1 uM after 24 hrs using annexin V/propidium iodide staining based flow cytometry (reference value: 0.710%); format: functional
[15] = tested on: HCT-116; experiment: Induction of apoptosis in human HCT116 cells assessed as early apoptotic cells at 1 uM after 24 hrs using annexin V/propidium iodide staining based flow cytometry (reference value: 1.93%); format: functional
[16] = tested on: HCT-116; experiment: Induction of apoptosis in human HCT116 cells assessed as viable cells at 1 uM after 24 hrs using annexin V/propidium iodide staining based flow cytometry (reference value: 93.3%); format: functional; details: HCT-116, 24 h, read-out: Activity
[17] = tested on: HCT-116; experiment: Induction of apoptosis in human HCT116 cells assessed as necrotic cells at 2 uM after 24 hrs using annexin V/propidium iodide staining based flow cytometry (reference value: 4.09%); format: functional
[18] = tested on: HCT-116; experiment: Induction of apoptosis in human HCT116 cells assessed as late apoptotic cells at 2 uM after 24 hrs using annexin V/propidium iodide staining based flow cytometry (reference value: 0.710%); format: functional
[19] = tested on: HCT-116; experiment: Induction of apoptosis in human HCT116 cells assessed as early apoptotic cells at 2 uM after 24 hrs using annexin V/propidium iodide staining based flow cytometry (reference value: 1.93%); format: functional
[20] = tested on: HCT-116; experiment: Induction of apoptosis in human HCT116 cells assessed as viable cells at 2 uM after 24 hrs using annexin V/propidium iodide staining based flow cytometry (reference value: 93.3%); format: functional; details: HCT-116, 24 h, read-out: Activity
[21] = tested on: HCT-116; experiment: Induction of apoptosis in human HCT116 cells after 24 hrs using annexin V/propidium iodide staining based flow cytometry; format: functional, cell-based
[22] = tested on: HCT-116; experiment: Induction of apoptosis in human HCT116 cells assessed as early apoptotic cells after 24 hrs using annexin V/propidium iodide staining based flow cytometry; format: functional, cell-based

Row | Compound | IC50 [2] [µM] | IC50 [5] [µM] | IC50 [6] [µM] | IC50 [7] [µM] | IC50 [8] [µM] | IC50 [1] [µM] | IC50 [3] [µM] | IC50 [4] [µM] | further results
1 | Cc1ccc2c(c1)-c1nc3cc(C(F)(F)F)ccc3n1CCO2 | 4.95 | 0.685 | 1.21 | 41.6 | > 50 | 4.45 | 6.47 | 4.86 | –
2 | FC(F)(F)c1ccc2c(c1)nc1n2CCOc2ccccc2-1 | 11.5 | – | – | – | – | 13.8 | 18.7 | 10.1 | –
3 | Clc1ccc2c(c1)-c1nc3ccccc3n1CCO2 | 108 | – | – | – | – | 87.7 | 92.5 | 91.3 | –
4 | Brc1ccc2c(c1)nc1n2CCOc2ccccc2-1 | 49.5 | – | – | – | – | 43.9 | 58.5 | 44.3 | –
5 | Clc1ccc2c(c1)nc1n2CCOc2ccccc2-1 | 77.3 | – | – | – | – | 71.5 | 80.3 | 73.8 | –
6 | Cc1ccc2c(c1)nc1n2CCOc2ccccc2-1 | 83.7 | – | – | – | – | 73.5 | 82.6 | 75.2 | –
7 | Brc1ccc2c(c1)-c1nc3ccccc3n1CCO2 | 128 | – | – | – | – | 98.5 | 132 | 103 | –
8 | Fc1ccc2c(c1)nc1n2CCOc2ccccc2-1 | 89.4 | – | – | – | – | 76.5 | 91.9 | 82.5 | –
9 | Cc1ccc2c(c1)-c1nc3cc([N+](=O)[O-])ccc3n1CCO2 | 0.11 | 0.016 | 0.184 | 9.44 | 34.6 | 0.08 | 0.12 | 0.1 | Activity [9]: 0.523%; Activity [10]: 4.91%; Activity [11]: 15.1%; viability at 0.5 µM [12]: 79.5%; Activity [13]: 1.26%; Activity [14]: 4.13%; Activity [15]: 17.8%; viability at 1 µM [16]: 76.8%; Activity [17]: 0.974%; Activity [18]: 5.98%; Activity [19]: 27.3%; viability at 2 µM [20]: 65.7%; Activity [21]: Dose-dependent effect; Activity [22]: Dose-dependent effect
10 | FC(F)(F)c1ccc2c(c1)nc1n2CCOc2ccc(Br)cc2-1 | 68.5 | – | – | – | – | 60.6 | 69.7 | 66.4 | –
11 | O=[N+]([O-])c1ccc2c(c1)nc1n2CCOc2ccc(Br)cc2-1 | 22 | – | – | – | – | 19 | 24.3 | 17.5 | –
12 | c1ccc2c(c1)OCCn1c-2nc2ccccc21 | 133 | – | – | – | – | 101 | 124 | 108 | –
13 | O=[N+]([O-])c1ccc2c(c1)nc1n2CCOc2ccccc2-1 | 122 | – | – | – | – | 91 | 105 | 94.5 | –
14 | Fc1ccc2c(c1)nc1n2CCOc2ccc(Br)cc2-1 | 0.7 | 0.181 | 0.473 | 27.9 | > 50 | 0.74 | 0.74 | 0.78 | –
15 | Brc1ccc2c(c1)-c1nc3cc(Br)ccc3n1CCO2 | 0.48 | 0.092 | 0.284 | 19.5 | 39.8 | 0.47 | 0.51 | 0.47 | –
16 | FC(F)(F)c1ccc2c(c1)nc1n2CCOc2ccc(Cl)cc2-1 | 38.3 | – | – | – | – | 34.7 | 42.3 | 38 | –
17 | Cc1ccc2c(c1)-c1nc3ccccc3n1CCO2 | 148 | – | – | – | – | 112 | 144 | 122 | –
18 | O=c1cc(N2CCOCC2)oc2c(-c3ccccc3)cccc12 [LY-294002] | 82.3 | – | – | – | 1.36 | 51.8 | 67.2 | – | –

More lines, main results first:

Row | IC50 [2] [µM] | IC50 [5] [µM] | IC50 [6] [µM] | IC50 [7] [µM] | IC50 [8] [µM] | Compound | IC50 [1] [µM] | IC50 [3] [µM] | IC50 [4] [µM] | further results
19 | 74.1 | – | – | – | – | Clc1ccc2c(c1)-c1nc3cc(Br)ccc3n1CCO2 | 64.4 | 72.1 | 66.7 | –
20 | 0.17 | 0.031 | 0.188 | 11.8 | > 50 | Clc1ccc2c(c1)nc1n2CCOc2ccc(Br)cc2-1 | 0.12 | 0.18 | 0.15 | –
21 | 61.6 | – | – | – | – | Cc1ccc2c(c1)nc1n2CCOc2ccc(Cl)cc2-1 | 58.2 | 63.4 | 57.4 | –
22 | 7.88 | 0.662 | 1.03 | 44.1 | 47.8 | Cc1ccc2c(c1)-c1nc3cc(Br)ccc3n1CCO2 | 7.38 | 4.91 | 7.68 | –
23 | 0.56 | 0.127 | 0.363 | 24.3 | > 50 | Clc1ccc2c(c1)-c1nc3cc(Cl)ccc3n1CCO2 | 0.52 | 0.45 | 0.53 | –
24 | 2.85 | 0.474 | 0.907 | 34.6 | > 50 | Cc1ccc2c(c1)-c1nc3cc(F)ccc3n1CCO2 | 2.46 | 3.86 | 4.56 | –
25 | 1.71 | 0.283 | 0.488 | 21.7 | 42.6 | Fc1ccc2c(c1)nc1n2CCOc2ccc(Cl)cc2-1 | 1.83 | 1.35 | 1.89 | –
26 | 92.8 | – | – | – | – | Cc1ccc2c(c1)nc1n2CCOc2ccc(Br)cc2-1 | 80.1 | 97.4 | 88.6 | –
27 | 28.3 | – | – | – | – | O=[N+]([O-])c1ccc2c(c1)nc1n2CCOc2ccc(Cl)cc2-1 | 28.4 | 20.1 | 32.9 | –
28 | 55.6 | – | – | – | – | Cc1ccc2c(c1)-c1nc3cc(Cl)ccc3n1CCO2 | 46.4 | 64.5 | 51.6 | –
29 | 0.61 | 0.118 | 0.394 | 17.1 | > 50 | Cc1ccc2c(c1)-c1nc3cc(C)ccc3n1CCO2 | 0.59 | 0.67 | 0.58 | –

Reference: ChEMBL document CHEMBL3400096, “6,7-Dihydrobenzo[f]benzo[4,5]imidazo[1,2-d][1,4]oxazepine derivatives as selective inhibitors of PI3Kα” (Bioorg Med Chem, 2015)
